Results reported in ChEMBL document CHEMBL4130471, “Design and synthesis of tranylcypromine derivatives as novel LSD1/HDACs dual inhibitors for cancer treatment” (Eur J Med Chem, 2017).

How the values were obtained:
Histone deacetylase 1 = Histone deacetylase 1 (Homo sapiens, UniProt Q13547); assay: Inhibition of C-terminal His-tagged and C-terminal FLAG-tagged human HDAC1 expressed in baculovirus expression system using Ac-peptide substrate incubated for 15 mins by fluorescence based assay
SW-620 = assay: cells; assay type: functional, cell-based; conditions: Homo sapiens, SW-620, 72 h
Description: Antiproliferative activity against human SW620 cells incubated for 72 hrs by MTT assay

MCF7 = assay: cells; assay type: functional, cell-based; conditions: Homo sapiens, MCF7, 72 h
Description: Antiproliferative activity against human MCF7 cells incubated for 72 hrs by MTT assay

Histone deacetylase 2 = Histone deacetylase 2 (Homo sapiens, UniProt Q92769)
Description: Inhibition of C-terminal His-tagged full length human HDAC2 expressed in baculovirus expression system using Ac-peptide substrate incubated for 15 mins by fluorescence based assay

[1] = target: T1, Amine oxidase [flavin-containing] B (Homo sapiens, UniProt P27338)
T1 sequence (P27338 whole entry): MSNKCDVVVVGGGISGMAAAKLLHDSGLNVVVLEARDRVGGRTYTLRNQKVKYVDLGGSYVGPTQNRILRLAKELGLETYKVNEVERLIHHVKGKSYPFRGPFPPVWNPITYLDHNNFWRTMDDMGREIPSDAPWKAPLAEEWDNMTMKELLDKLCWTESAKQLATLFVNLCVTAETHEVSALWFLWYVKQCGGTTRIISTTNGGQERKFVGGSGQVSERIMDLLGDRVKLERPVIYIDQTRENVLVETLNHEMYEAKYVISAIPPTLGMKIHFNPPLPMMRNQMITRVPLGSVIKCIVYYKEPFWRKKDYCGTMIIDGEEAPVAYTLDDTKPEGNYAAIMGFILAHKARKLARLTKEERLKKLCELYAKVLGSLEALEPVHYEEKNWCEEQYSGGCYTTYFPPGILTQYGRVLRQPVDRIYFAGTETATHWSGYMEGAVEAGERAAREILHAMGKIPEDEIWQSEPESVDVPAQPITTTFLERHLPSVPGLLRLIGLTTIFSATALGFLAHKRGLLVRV
Description: Inhibition of MAOB (unknown origin) using beetle luciferin as substrate by MAO-Glo assay

PC-3 = assay: cells; assay type: functional, cell-based; conditions: Homo sapiens, PC-3, 72 h
Description: Antiproliferative activity against human PC3 cells incubated for 72 hrs by MTT assay

Histone deacetylase 5 = Histone deacetylase 5 (Homo sapiens, UniProt Q9UQL6); assay: Inhibition of C-terminal His-tagged human HDAC5 (656-1122 residues) expressed in baculovirus expression system using Ac-peptide substrate incubated for 15 mins by fluorescence based assay
[2] = target: Lysine-specific histone demethylase 1A (Homo sapiens, UniProt O60341)
Description: Inhibition of recombinant LSD1 (157 to 852 amino acids) (unknown origin) expressed in Escherichia coli BL21(DE) using H3K4me2 substrate by amplex red and horseradish peroxidase based fluorescence assay

[3] = target: T2, Amine oxidase [flavin-containing] A (Homo sapiens, UniProt P21397)
T2 sequence (P21397 whole entry): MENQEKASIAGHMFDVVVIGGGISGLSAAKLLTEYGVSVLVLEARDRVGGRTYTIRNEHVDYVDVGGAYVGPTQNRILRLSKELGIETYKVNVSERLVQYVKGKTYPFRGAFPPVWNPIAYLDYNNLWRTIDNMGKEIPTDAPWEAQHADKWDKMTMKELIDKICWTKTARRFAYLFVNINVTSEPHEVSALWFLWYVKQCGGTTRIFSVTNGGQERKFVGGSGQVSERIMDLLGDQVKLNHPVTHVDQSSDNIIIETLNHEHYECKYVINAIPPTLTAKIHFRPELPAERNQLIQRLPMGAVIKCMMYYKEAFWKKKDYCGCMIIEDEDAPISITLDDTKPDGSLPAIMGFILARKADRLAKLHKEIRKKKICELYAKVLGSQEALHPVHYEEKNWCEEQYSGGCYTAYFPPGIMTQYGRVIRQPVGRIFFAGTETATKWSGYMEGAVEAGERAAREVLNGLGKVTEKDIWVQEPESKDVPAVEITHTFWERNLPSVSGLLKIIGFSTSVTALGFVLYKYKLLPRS
Description: Inhibition of MAOA (unknown origin) using beetle luciferin as substrate by MAO-Glo assay

A549 = assay: cells; assay type: functional, cell-based; conditions: Homo sapiens, A549, 72 h
Description: Antiproliferative activity against human A549 cells incubated for 72 hrs by MTT assay

MGC-803 = assay: cells; assay type: functional, cell-based; conditions: Homo sapiens, MGC-803, 72 h
Description: Antiproliferative activity against human MGC803 cells incubated for 72 hrs by MTT assay

Histone deacetylase 1, sequence (Q13547 whole entry): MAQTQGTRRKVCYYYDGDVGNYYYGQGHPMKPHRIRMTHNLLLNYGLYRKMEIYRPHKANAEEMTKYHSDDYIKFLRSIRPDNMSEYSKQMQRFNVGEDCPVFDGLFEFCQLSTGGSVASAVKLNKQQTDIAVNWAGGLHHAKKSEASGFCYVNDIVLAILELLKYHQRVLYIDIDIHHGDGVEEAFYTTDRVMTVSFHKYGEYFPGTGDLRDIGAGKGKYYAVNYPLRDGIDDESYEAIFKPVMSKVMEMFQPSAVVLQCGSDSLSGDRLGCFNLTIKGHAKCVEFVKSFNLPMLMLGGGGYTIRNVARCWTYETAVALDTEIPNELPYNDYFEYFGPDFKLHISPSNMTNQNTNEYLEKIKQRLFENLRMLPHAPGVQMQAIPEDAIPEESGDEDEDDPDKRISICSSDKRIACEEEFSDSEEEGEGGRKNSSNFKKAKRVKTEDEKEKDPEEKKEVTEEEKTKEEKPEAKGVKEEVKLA
Histone deacetylase 2, sequence (Q92769 whole entry): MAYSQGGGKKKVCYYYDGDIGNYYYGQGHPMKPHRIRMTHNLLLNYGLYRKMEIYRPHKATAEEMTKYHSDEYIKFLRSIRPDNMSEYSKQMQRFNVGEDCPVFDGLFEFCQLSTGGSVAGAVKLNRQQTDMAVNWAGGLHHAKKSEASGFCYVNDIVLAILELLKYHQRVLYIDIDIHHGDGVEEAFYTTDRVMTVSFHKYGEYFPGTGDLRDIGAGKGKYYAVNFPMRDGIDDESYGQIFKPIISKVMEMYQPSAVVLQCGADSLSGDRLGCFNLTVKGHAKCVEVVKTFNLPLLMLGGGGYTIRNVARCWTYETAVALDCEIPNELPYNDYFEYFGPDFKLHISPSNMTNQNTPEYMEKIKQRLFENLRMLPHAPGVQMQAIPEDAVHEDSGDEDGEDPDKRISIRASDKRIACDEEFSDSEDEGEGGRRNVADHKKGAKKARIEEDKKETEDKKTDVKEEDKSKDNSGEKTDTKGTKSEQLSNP
Histone deacetylase 5, sequence (Q9UQL6 whole entry, the tested form may be a part): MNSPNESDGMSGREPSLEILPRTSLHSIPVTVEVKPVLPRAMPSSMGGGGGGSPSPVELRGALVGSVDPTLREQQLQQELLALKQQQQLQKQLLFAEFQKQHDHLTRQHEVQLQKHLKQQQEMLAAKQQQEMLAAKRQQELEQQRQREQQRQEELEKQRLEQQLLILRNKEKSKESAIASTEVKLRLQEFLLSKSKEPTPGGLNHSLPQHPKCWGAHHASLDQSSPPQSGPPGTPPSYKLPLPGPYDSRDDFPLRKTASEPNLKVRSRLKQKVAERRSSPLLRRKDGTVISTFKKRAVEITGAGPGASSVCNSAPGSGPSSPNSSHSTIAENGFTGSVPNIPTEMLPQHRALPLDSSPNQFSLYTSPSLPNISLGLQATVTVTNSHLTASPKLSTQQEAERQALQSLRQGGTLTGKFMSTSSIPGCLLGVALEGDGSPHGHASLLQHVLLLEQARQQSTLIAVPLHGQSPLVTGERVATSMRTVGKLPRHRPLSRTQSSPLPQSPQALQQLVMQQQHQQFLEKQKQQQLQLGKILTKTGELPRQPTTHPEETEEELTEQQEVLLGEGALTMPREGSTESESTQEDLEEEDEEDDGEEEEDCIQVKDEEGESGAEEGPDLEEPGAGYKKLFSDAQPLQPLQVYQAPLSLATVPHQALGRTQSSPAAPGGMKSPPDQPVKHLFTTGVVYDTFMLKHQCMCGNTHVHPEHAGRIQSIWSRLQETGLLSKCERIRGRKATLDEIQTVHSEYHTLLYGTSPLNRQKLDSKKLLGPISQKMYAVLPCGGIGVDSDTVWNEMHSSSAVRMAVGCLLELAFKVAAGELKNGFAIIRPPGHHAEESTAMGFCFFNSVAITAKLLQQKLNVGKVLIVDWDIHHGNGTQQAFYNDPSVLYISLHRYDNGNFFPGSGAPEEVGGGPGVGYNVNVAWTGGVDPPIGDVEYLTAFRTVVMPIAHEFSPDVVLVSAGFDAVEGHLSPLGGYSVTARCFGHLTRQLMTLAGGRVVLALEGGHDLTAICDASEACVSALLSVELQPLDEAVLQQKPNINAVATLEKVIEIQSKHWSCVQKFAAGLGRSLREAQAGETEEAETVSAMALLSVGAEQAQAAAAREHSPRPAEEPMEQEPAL

Row | SMILES | IC50 (Histone deacetylase 1) [µM] | IC50 (SW-620) [µM] | IC50 (MCF7) [µM] | IC50 (Histone deacetylase 2) [µM] | IC50 [1] [µM] | IC50 (PC-3) [µM] | IC50 (Histone deacetylase 5) | IC50 [2] [µM] | IC50 [3] [µM] | IC50 (A549) [µM] | IC50 (MGC-803) [µM]
1 | Nc1ccccc1NC(=O)/C=C/c1ccc(CNC2CC2c2ccccc2)cc1 (stereo not drawn) | 0.314 | 26.9 | 22.1 | 0.491 | > 100 | 11.6 | Not Active | 3.85 | 36.9 | 3.17 | 13.6
2 | O=C(NO)c1ccc(CNC2CC2c2ccccc2)cc1 (stereo not drawn) | 1.44 | 23.3 | 17.3 | 3.1 | > 100 | 19.8 | Not Active | 4.09 | 45.8 | 6.75 | 12
3 | Nc1ccccc1NC(=O)c1ccc(CNC2CC2c2ccccc2)cc1 (stereo not drawn) | 0.218 | > 32 | 19.5 | 0.413 | > 100 | 21.7 | Not Active | 7.16 | 50.1 | 5.36 | 21.5
